Test results: patent publication US9315517B2, “Imidazol-piperidinyl derivatives as modulators of kinase activity” (Merck Patent GmbH, priority 2012, dated 2016)

Experiments:
[1] = biological target: T1, P70S6K (T412E mutant, Millipore) (Homo sapiens, UniProt P23443, T412E); assay: P70S6K enzyme assay; assay type: biochemical; conditions: enzyme inhibition; 24 μM ATP, 90 min at 25° C., Caliper mobility shift
T1 construct: purchased Millipore
Experimental: (§1) The IC50 values reported for the compounds in the Experimental section were derived from the following protocol for the p70S6K and AKT enzyme assays.
P70S6K inhibitor compounds were diluted and plated in 96 well plates. A reaction mixture including the following components was then added to the compound plate to initiate the enzyme reaction; P70S6K (3 nM, T412E mutant, Millipore) was mixed with 24 μM ATP in an assay buffer containing 100 mM Hepes (pH 7.5), 5 mM MgCl2, 1 mM DTT, 0.015% Brij and 1 μM of the substrate peptide FITC-AHA-AKRRRLSSLRA-OH (derived from the S6 ribosomal protein sequence, FITC=fluorescein isothiocyanate, AHA=6-aminohexanoic acid). The reaction was incubated for 90 min at 25° C., before the addition of 10 mM EDTA to stop the reaction. The proportion of substrate and product (phosphorylated) peptide was analysed on a Caliper Life Sciences Lab Chip 3000, using a pressure of −1.4 psi, and upstream and downstream voltages of −3000 and −700 respectively. Product peaks were resolved before substrate peaks on the resulting chromatograms.

His-AKT (Full Length) = biological target: T2, His-AKT (Full Length) (Homo sapiens, UniProt P31749); assay: AKT enzyme assay; assay type: biochemical; conditions: enzyme inhibition; 160 uM ATP, 90 min at 25° C., Caliper mobility shift
T2 construct: 0.1 ng/μl His-AKT (Full Length); His; purchased Invitrogen P2999
Experimental: as §1
A TTP Mosquito liquid handling instrument was used to place 125 nl of the appropriate concentration of inhibitor in 100% DMSO (for a dose response curve calculation) into each well of a 384-well plate. To this reaction components were added to a final volume of 12.5 μl: • 0.1 ng/μl His-AKT (Full Length), (Invitrogen, Part # P2999, Lot # 641228C). • 160 uM ATP (Fluke, 02055) • 1 mM DTT (Sigma, D0632) • 1 mM MgCl2 (Sigma, M1028) • 1 μM substrate peptide (sequence FITC-AHA-GRPRTSSFAEG-NH2), synthesized by Tufts Peptide Synthesis service. • 100 mM HEPES pH 7.5 (Calbiochem, 391338) • 0.015% Brij-35 (Sigma, B4184)
The reaction was incubated for 90 min at 25° C., and then stopped by the addition of 70 μl of Stop buffer (100 mM HEPES pH 7.5, 0.015% Brij-35, 10 mM EDTA (Sigma, E7889)).
The plate was read on a Caliper LC 3000 in an Off-Chip mobility shift assay format, using the following parameters for a 12-sipper chip: screening pressure −2.3 psi, upstream voltage −500, and downstream voltage −3000. These conditions caused unphosphorylated substrate and phosphorylated product peptide to resolve as separate peaks allowing direct measurement of percentage of conversion of substrate to product. The percent conversion was plotted against concentration of inhibitor to produce a sigmoidal dose response curve, from which an IC50 was calculated.

T1 sequence (P23443 whole entry T412E): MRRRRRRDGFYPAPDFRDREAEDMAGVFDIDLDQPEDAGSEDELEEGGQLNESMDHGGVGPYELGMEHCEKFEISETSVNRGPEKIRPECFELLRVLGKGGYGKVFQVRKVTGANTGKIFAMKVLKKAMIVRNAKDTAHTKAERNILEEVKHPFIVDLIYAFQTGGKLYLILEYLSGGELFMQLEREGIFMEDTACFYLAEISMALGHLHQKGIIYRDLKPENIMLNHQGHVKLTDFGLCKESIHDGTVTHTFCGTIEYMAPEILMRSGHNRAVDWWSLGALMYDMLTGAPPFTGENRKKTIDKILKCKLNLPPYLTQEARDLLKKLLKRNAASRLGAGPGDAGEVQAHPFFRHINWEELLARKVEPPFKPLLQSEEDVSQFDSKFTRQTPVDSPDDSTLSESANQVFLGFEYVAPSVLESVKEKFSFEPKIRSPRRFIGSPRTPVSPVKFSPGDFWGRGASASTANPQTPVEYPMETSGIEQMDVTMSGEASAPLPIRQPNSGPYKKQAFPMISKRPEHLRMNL
T2 sequence (P31749 whole entry): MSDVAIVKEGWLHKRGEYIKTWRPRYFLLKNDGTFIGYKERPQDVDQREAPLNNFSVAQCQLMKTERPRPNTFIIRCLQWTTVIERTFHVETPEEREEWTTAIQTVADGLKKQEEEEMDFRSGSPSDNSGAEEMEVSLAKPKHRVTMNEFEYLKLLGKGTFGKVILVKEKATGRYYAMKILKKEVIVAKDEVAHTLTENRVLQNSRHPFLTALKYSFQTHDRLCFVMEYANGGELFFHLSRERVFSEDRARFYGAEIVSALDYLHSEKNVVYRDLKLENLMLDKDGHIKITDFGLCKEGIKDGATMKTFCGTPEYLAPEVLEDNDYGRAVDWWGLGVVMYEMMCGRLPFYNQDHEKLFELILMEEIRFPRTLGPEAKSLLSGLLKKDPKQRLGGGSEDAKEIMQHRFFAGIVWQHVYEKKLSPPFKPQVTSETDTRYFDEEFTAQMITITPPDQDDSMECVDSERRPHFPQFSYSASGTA

Row | SMILES | IC50 [1] [nM] | IC50 (His-AKT (Full Length)) [nM]
1 | Fc1ccc(-c2cn(CCN3CCC3)c(C3CCN(c4ncnc5c4OCCN5)CC3)n2)cc1C(F)(F)F [Compound A1, 4-(4-(1-(2-(azetidin-1-yl)ethyl)-4-(4-fluoro-3-(trifluoromethyl)phenyl)-1H-imidazol-2-yl)piperidin-1-yl)-7,8-dihydro-6H-pyrimido[5,4-b][1,4]oxazine] | < 25 | < 25
2 | FC(F)(F)c1cc(-c2cn(CCN3CCC3)c(C3CCN(c4ncnc5c4OCCN5)CC3)n2)ccn1 [Compound A2, 4-(4-(1-(2-(azetidin-1-yl)ethyl)-4-(2-(trifluoromethyl)pyridin-4-yl)-1H-imidazol-2-yl)piperidin-1-yl)-7,8-dihydro-6H-pyrimido[5,4-b][1,4]oxazine] | < 25 | 26 to 100
3 | CN(C)CCn1cc(-c2ccc(F)c(C(F)(F)F)c2)nc1C1CCN(c2ncnc3c2CCN3)CC1 [Compound A3, 2-(2-(1-(6,7-dihydro-5H-pyrrolo[2,3-d]pyrimidin-4-yl)piperidin-4-yl)-4-(4-fluoro-3-(trifluoromethyl)phenyl)-1H-imidazol-1-yl)-N,N-dimethylethanamine] | < 25 | < 25
4 | CN(C)CCn1cc(-c2ccc(F)c(C(F)(F)F)c2)nc1C1CCN(c2ccnc3c2CCCN3)CC1 [Compound A5, 2-(4-(4-fluoro-3-(trifluoromethyl)phenyl)-2-(1-(5,6,7,8-tetrahydro-1,8-naphthyridin-4-yl)piperidin-4-yl)-1H-imidazol-1-yl)-N,N-dimethylethanamine] | < 25 | 26 to 100
5 | CN(C)CCn1cc(-c2ccc(F)c(C(F)(F)F)c2)nc1C1CCN(c2ncnc3c2OCCN3)CC1 [Compound A6, {2-[2-[1-(7,8-Dihydro-6H-pyrimido[5,4-b][1,4]oxazin-4-yl)-piperidin-4-yl]-4-(4-fluoro-3-trifluoromethyl-phenyl)-imidazol-1-yl]-ethyl}-dimethylamine] | < 25 | < 25
6 | Cc1cc(-c2cn(CCN(C)C)c(C3CCN(c4ncnc5c4OCCN5)CC3)n2)ccc1F [Compound A7, {2-[2-[1-(7,8-Dihydro-6H-pyrimido[5,4-b][1,4]oxazin-4-yl)-piperidin-4-yl]-4-(4-fluoro-3-methyl-phenyl)-imidazol-1-yl]-ethyl}-dimethylamine] | < 25 | 26 to 100
7 | COc1cc(-c2cn(CCN(C)C)c(C3CCN(c4ncnc5c4OCCN5)CC3)n2)ccc1F [Compound A8, {2-[2-[1-(7,8-Dihydro-6H-pyrimido[5,4-b][1,4]oxazin-4-yl)-piperidin-4-yl]-4-(4-fluoro-3-methoxy-phenyl)-imidazol-1-yl]-ethyl}-dimethylamine] | < 25 | < 25
8 | CN(C)CCn1cc(-c2ccc(F)c(Cl)c2)nc1C1CCN(c2ncnc3c2OCCN3)CC1 [Compound A9, (2-{4-(3-Chloro-4-fluoro-phenyl)-2-[1-(7,8-dihydro-6H-pyrimido[5,4-b][1,4]oxazin-4-yl)-piperidin-4-yl]-imidazol-1-yl}-ethyl)-dimethylamine] | < 25 | < 25
9 | CN(C)CCn1cc(-c2ccnc(C(F)(F)F)c2)nc1C1CCN(c2ncnc3c2OCCN3)CC1 [Compound A10, {2-[2-[1-(7,8-Dihydro-6H-pyrimido[5,4-b][1,4]oxazin-4-yl)-piperidin-4-yl]-4-(2-trifluoromethyl-pyridin-4-yl)-imidazol-1-yl]-ethyl}-dimethylamine] | < 25 | 26 to 100
10 | Cc1cc(-c2cn(CCN3CCC3)c(C3CCN(c4ncnc5c4OCCN5)CC3)n2)ccc1F [Compound A11, 4-{4-[1-(2-Azetidin-1-yl-ethyl)-4-(4-fluoro-3-methyl-phenyl)-1H-imidazol-2-yl]-piperidin-1-yl}-7,8-dihydro-6H-pyrimido[5,4-b][1,4]oxazine] | < 25 | < 25
11 | Fc1ccc(-c2cn(CCN3CCC3)c(C3CCN(c4ncnc5c4OCCN5)CC3)n2)cc1Cl [Compound A13, 4-{4-[1-(2-Azetidin-1-yl-ethyl)-4-(3-chloro-4-fluoro-phenyl)-1H-imidazol-2-yl]-piperidin-1-yl}-7,8-dihydro-6H-pyrimido[5,4-b][1,4]oxazine] | < 25 | < 25

Other lines, results leading:

Row | IC50 [1] [nM] | IC50 (His-AKT (Full Length)) [nM] | SMILES
12 | < 25 | 26 to 100 | CN(C)CCn1cc(-c2ccc(F)c(C(F)(F)F)c2)nc1C1CCN(c2ncnc3c2CCC3)CC1 [Compound A14, {2-[2-[1-(6,7-Dihydro-5H-cyclopentapyrimidin-4-yl)-piperidin-4-yl]-4-(4-fluoro-3-trifluoromethyl-phenyl)-imidazol-1-yl]-ethyl}-dimethylamine]
13 | < 25 | 101 to 500 | Cc1cc(-c2cn(CCN(C)C)c(C3CCN(c4ncnc5c4CCC5)CC3)n2)ccc1F [Compound A15, {2-[2-[1-(6,7-Dihydro-5H-cyclopentapyrimidin-4-yl)-piperidin-4-yl]-4-(4-fluoro-3-methyl-phenyl)-imidazol-1-yl]-ethyl}-dimethylamine]
14 | < 25 | 26 to 100 | COc1cc(-c2cn(CCN(C)C)c(C3CCN(c4ncnc5c4CCC5)CC3)n2)ccc1F [Compound A16, {2-[2-[1-(6,7-Dihydro-5H-cyclopentapyrimidin-4-yl)-piperidin-4-yl]-4-(4-fluoro-3-methoxy-phenyl)-imidazol-1-yl]-ethyl}-dimethylamine]
15 | < 25 | 26 to 100 | CN(C)CCn1cc(-c2ccc(F)c(Cl)c2)nc1C1CCN(c2ncnc3c2CCC3)CC1 [Compound A17, (2-{4-(3-Chloro-4-fluoro-phenyl)-2-[1-(6,7-dihydro-5H-cyclopentapyrimidin-4-yl)-piperidin-4-yl]-imidazol-1-yl}-ethyl)-dimethylamine]
16 | 26 to 100 | 101 to 500 | CN(C)CCn1cc(-c2ccnc(C(F)(F)F)c2)nc1C1CCN(c2ncnc3c2CCC3)CC1 [Compound A18, {2-[2-[1-(6,7-Dihydro-5H-cyclopentapyrimidin-4-yl)-piperidin-4-yl]-4-(2-trifluoromethyl-pyridin-4-yl)-imidazol-1-yl]-ethyl}-dimethylamine]
17 | < 25 | < 25 | Fc1ccc(-c2cn(CCN3CCC3)c(C3CCN(c4ncnc5c4CCC5)CC3)n2)cc1Cl [Compound A19, 4-{4-[1-(2-Azetidin-1-yl-ethyl)-4-(3-chloro-4-fluoro-phenyl)-1H-imidazol-2-yl]-piperidin-1-yl}-6,7-dihydro-5H-cyclopentapyrimidine]
18 | < 25 | < 25 | Fc1ccc(-c2cn(CCN3CCC3)c(C3CCN(c4ncnc5c4CCC5)CC3)n2)cc1C(F)(F)F [Compound A20, 4-{4-[1-(2-Azetidin-1-yl-ethyl)-4-(4-fluoro-3-trifluoromethyl-phenyl)-1H-imidazol-2-yl]-piperidin-1-yl}-6,7-dihydro-5H-cyclopentapyrimidine]
19 | < 25 | < 25 | Cc1cc(-c2cn(CCN3CCC3)c(C3CCN(c4ncnc5c4CCC5)CC3)n2)ccc1F [Compound A21, 4-{4-[1-(2-Azetidin-1-yl-ethyl)-4-(4-fluoro-3-methyl-phenyl)-1H-imidazol-2-yl]-piperidin-1-yl}-6,7-dihydro-5H-cyclopentapyrimidine]
20 | < 25 | < 25 | COc1cc(-c2cn(CCN3CCC3)c(C3CCN(c4ncnc5c4CCC5)CC3)n2)ccc1F [Compound A22, 4-{4-[1-(2-Azetidin-1-yl-ethyl)-4-(4-fluoro-3-methoxy-phenyl)-1H-imidazol-2-yl]-piperidin-1-yl}-6,7-dihydro-5H-cyclopentapyrimidine]
